Entries after “also recorded” stand apart in the source; their conditions may differ.
Columns and labels:
[1] = test system: MDA-MB-468 triple negative breast cancer cells; assay: MTS cytotoxicity assay in MDA-MB-468 triple negative breast cancer cells; format: cell-based; conditions: Homo sapiens, MDA-MB-468; 72 hours; mean ± SD n = 3
Description: The assay was performed as follows.
Derivatives were dosed at 10, 50 and 100 μM for 24, 48 and 72 hours and cell viability measured by MTS assay (FIG. 5).

[2] = test system: human embryonic kidney (HEK293) cells; assay: MTS cytotoxicity assay in HEK293 cells; format: cell-based; conditions: 72 hours, mean ± SD n = 3
Description: The assay was performed as follows. To determine the cell growth inhibition ability of the synthesized compounds the (3-(4,5-dimethylthiazol-2-yl)-5-(3-carboxymethoxyphenyl)-2-(4-sulfophenyl)-2H-tetrazolium) (MTS) assay used according to the manufacturer's recommended protocol. Stock solutions of the synthesized compounds were prepared in DMSO. Cells were seeded at a density of 1×10^5 cells in 96-well plates. After 24 hours, cells were treated at the indicated concentrations of test compounds, limiting the final DMSO concentration to less than 1%. After incubation at 37° C. in an environment of 5% CO2 for 48-72 hours, 10 μL of MTS reagent (CellTiter 96© AQueous One Solution Reagent) was added to each well and incubated at the above mentioned conditions for 2-4 hr. Absorbance was recorded at 490 nm on a BioTek Synergy Mx multimode plate reader and the viability of cells were plotted as percentage of controls.
Cytotoxicity was also evaluated by using the low tumorigenic HEK293 cells at 50 μM concentration.

[3] = test system: VEGF-induced proliferation of HUVEC cells; assay: VEGF-induced HUVEC proliferation, MTT assay; format: cell-based, human; conditions: VEGF 10 ng/mL
In short: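 HUVECs starved 24 h in 0.1% BSA/0.1% FBS basal medium, then treated 48 h with VEGF (10 ng/mL) alone or with compounds at 20 μM (DMSO <1%). Proliferation by MTT (2 h, 37° C), formazan dissolved in acidified isopropanol, absorbance at 570 nm.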

[4] = test system: phosphorylated vascular endothelial growth factor receptor-2 (VEGFR2); assay: Western blot of pVEGFR2 in VEGF-treated HUVEC cells; format: cell-based, human; conditions: 20 μM, VEGF 10 ng/mL, 5 min
Description: Cells were treated with test compounds (20 μM) along with VEGF (10 ng/mL) for 5 min. The DMSO was used as a negative control, whereas DMSO+VEGF was used as a positive control. Cells were lysed using RIPA buffer (10 mmol/L Tris-HCl, 1 mmol/L EDTA, 0.5 mmol/L EGTA, 1% Triton X-100, 0.1% sodium deoxycholate, 0.1% SDS and 140 mmol/L NaCl), supplemented with protease and phosphatase inhibitors (Halt Protease and Phosphatase Inhibitor). Cell lysates were centrifuged, and the supernatants were mixed with appropriate amount of 5×SDS loading buffer. Proteins were resolved on polyacrylamide gel and transferred onto nitrocellulose/PVDF membrane, blocked for 1 hour with 10% milk block prepared in 0.1% Tween 20 in 1×PBS (PBST), and treated with pVEGFR2 primary antibody at 4° C. overnight. The membrane was washed thrice with PBST, 5 minutes each, and treated with secondary antibody for 1 hour. The membrane was further washed three times, 5 minutes each, with PBST and developed using chemiluminescence, and the bands were analyzed using densitometry.

O=S1(=O)N=C(NCc2ccc(OC(F)(F)F)cc2)Nc2cc(Cl)ccc21 [Compound 30b, 6-chloro-3-((4-(trifluoromethoxy)benzyl)amino)-4H-benzo[e][1,2,4]thiadiazine 1,1-dioxide]
IC50 [1]: 48 µM | IC50 [2]: 77.2 µM | inhibition of VEGF-induced HUVEC proliferation (in words) ([3]; 20 μM): suppressed HUVEC proliferation; also recorded: enhanced activity | inhibition at 20 µM ([3]; Homo sapiens, HUVEC, 48 h, 20 μM compound, HUVEC, 48 h, relative to VEGF treated cells, mean ± SEM n = 3, read-out: % Inhibition of Proliferation): 196 ± 11% | attenuation of pVEGFR2 expression [4]: outperformed the parent compound; also recorded: most potent

Source: patent publication US20230219912A1, “HALOGENATED BENZOTHIADIAZINES FOR THE TREATMENT OF CANCER” (BOARD OF REGENTS OF THE UNIVERSITY OF NEBRASKA, priority 2020, published 2023)
